From patent US12331054B2, “Perk inhibiting imidazolopyrazine compounds” (HiberCell, Inc., priority 2019, dated 2025) come the findings set out here.

Test [1] concerns the target Recombinant human EIF2AK3 (PERK) catalytic domain (amino acids 536-1116) (Homo sapiens (Human), UniProt Q9NZJ5). In words: PERK In Vitro Activity Assay (isolated), TR-FRET kinase assay. The settings on record: isolated PERK enzyme, 1.5 μM ATP, read-out: Biochemical IC50. The source says:
PERK In Vitro Activity Assay (isolated):
In vitro Inhibition of PERK Enzyme Activity (isolated) Recombinant human EIF2AK2 (PKR) catalytic domain (amino acids 252-551), EIF2AK3 (PERK) catalytic domain (amino acids 536-1116), GFP-eIF2a substrate, and Terbium-labelled phospho-eIF2a antibody is obtained (Invitrogen, Carlsbad, CA).
Express and purify HIS-SUMO-GCN2 catalytic domain (amino acids 584-1019) from E. coli. Perform TR-FRET kinase assays in the absence or presence of inhibitors in a reaction buffer consisting of 50 mM HEPES, pH 7.5, 10 mM MgCb, 1.0 mM EGTA, and 0.01% Brij-35, and 100-200 nM GFP-eIF2a substrate. […] Add test compound, initiate the reaction by addition of enzyme, and incubate at room temperature for 45 minutes. Stop the reaction by addition of EDTA to a final concentration of 10 mM, add Terbium-labelled phospho-eIF2a antibody at a final concentration of 2 nM, and incubate for 90 minutes. Monitor the resulting fluorescence in an EnVison® Multilabel reader (PerkinElmer, Waltham, MA). Determine TR-FRET ratios and the resulting IC50 values using a 4-parameter nonlinear logistic equation as shown: Y=(A+((B−A)/(1+(C/x)AD)))) where, Y=% specific inhibition, A=Bottom of the curve, B=Top of the curve, C=absolute IC50 (concentration causing 50% inhibition), and D=hill slope.
In general terms: In TR-FRET formats the signal depends on donor and acceptor labels being close together.

The subject of test [2] is eIF2α in HEK293-EGFP-eIF2α cells. In words: PERK Cellular Assay (HEK293-EGFP-eIF2α cells, tunicamycin-induced ER stress, TR-FRET). It counts as cell-based. The settings on record: tunicamycin 2 hours. The method, then:
Stable cell lines were created in HEK293 cells using lentiviral particles harboring an expression vector for GFP-eIF2α. Cells were selected using puromycin and enriched using fluorescence activated cell sorting against GFP. HEK293-EGFP-eIF2α cells were plated at 5000 cells/well in 384-well assay plates and incubated overnight at 37° C., 5% CO2. Inhibitor compounds were added to the wells by Echo acoustic dispensing and incubated for 30 minutes at 37° C., 5% CO2 prior to induction of ER stress by addition of tunicamycin to […] for 2 hours. Cells were lysed and TR-FRET was measured in an EnVision plate reader (PerkinElmer). FRET ratio data was normalized to signal from lysates treated with DMSO vehicle control and plotted as percent inhibition against 10-point; 3-fold dilution series of inhibitors. IC50 values were calculated using 4-parameter logistical fitting in XLFit.

Chain of Recombinant human EIF2AK3 (PERK) catalytic domain (amino acids 536-1116) (Q9NZJ5 536-1116): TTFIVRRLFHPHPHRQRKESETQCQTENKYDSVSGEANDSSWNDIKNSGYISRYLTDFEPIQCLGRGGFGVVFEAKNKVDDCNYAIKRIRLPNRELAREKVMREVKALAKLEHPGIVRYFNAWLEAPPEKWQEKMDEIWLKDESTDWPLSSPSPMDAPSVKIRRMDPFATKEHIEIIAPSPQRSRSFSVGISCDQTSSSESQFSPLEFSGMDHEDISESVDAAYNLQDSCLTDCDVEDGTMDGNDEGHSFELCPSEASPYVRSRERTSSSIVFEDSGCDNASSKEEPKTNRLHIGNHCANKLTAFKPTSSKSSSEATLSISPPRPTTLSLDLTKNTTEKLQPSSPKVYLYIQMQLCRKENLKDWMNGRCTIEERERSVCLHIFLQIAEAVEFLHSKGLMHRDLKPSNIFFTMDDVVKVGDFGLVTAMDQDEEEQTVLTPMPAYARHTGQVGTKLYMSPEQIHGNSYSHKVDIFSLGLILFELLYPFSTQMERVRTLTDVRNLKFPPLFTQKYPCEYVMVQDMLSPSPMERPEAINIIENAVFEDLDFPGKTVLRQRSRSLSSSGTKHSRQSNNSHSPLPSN

For `Cc1cc(NC(=O)C(O)c2cccc(F)c2)ccc1-c1nc(C)n2c(Cl)cnc(N)c12` (stereo not drawn) [Example 29, N-(4-(8-amino-5-chloro-3-methylimidazo[1,5-a]pyrazin-1-yl)-3-methylphenyl)-2-(3-fluorophenyl)-2-hydroxyacetamide], the IC50 – broadly, the midpoint of a concentration-inhibition curve – lay in the range of 1 to 25 nM in test [1] and 26 to 50 nM in test [2].

Turning to `[2H]C([2H])([2H])c1nc(-c2ccc(NC(=O)C(O)c3cccc(F)c3)cc2C)c2c(N)ncc(C(F)(F)F)n12` (stereo not drawn) [Example 30, N-[4-[8-amino-3-(trideuteriomethyl)-5-(trifluoromethyl)imidazo[1,5-a]pyrazin-1-yl]-3-methyl-phenyl]-2-(3-fluorophenyl)-2-hydroxy-acetamide], the IC50 in test [1] and in test [2] was 1 to 25 nM in each case.

`[2H]C([2H])([2H])c1nc(-c2ccc(NC(=O)C(O)c3cccc(F)c3)cc2C)c2c(N)ncc(C(F)(F)F)n12` (stereo not drawn) [Example 31, N-[4-[8-amino-3-(trideuteriomethyl)-5-(trifluoromethyl)imidazo[1,5-a]pyrazin-1-yl]-3-methyl-phenyl]-2-(3-fluorophenyl)-2-hydroxy-acetamide]: the IC50 in test [1] lay within 1 to 25 nM; in test [2], 251 to 500 nM.

As to `[2H]C([2H])([2H])c1nc(-c2ccc(NC(=O)C(O)c3cccc(F)c3)cc2C)c2c(N)ncc(Cl)n12` (stereo not drawn) [Example 32, N-[4-[8-amino-5-chloro-3-(trideuteriomethyl)imidazo[1,5-a]pyrazin-1-yl]-3-methyl-phenyl]-2-(3-fluorophenyl)-2-hydroxy-acetamide], the IC50 in test [1] and in test [2] was 1 to 25 nM throughout.

For `[2H]C([2H])([2H])c1nc(-c2ccc(NC(=O)C(O)c3cccc(F)c3)cc2C)c2c(N)ncc(Cl)n12` (stereo not drawn) [Example 33, N-[4-[8-amino-5-chloro-3-(trideuteriomethyl)imidazo[1,5-a]pyrazin-1-yl]-3-methyl-phenyl]-2-(3-fluorophenyl)-2-hydroxy-acetamide], the IC50 in test [1] is 1 to 25 nM; in test [2], 51 to 100 nM.

For `[2H]C([2H])([2H])c1nc(-c2ccc(NC(=O)C(O)c3cccc(Cl)c3)cc2C)c2c(N)nc(C)cn12` (stereo not drawn) [Example 34, N-[4-[8-amino-6-methyl-3-(trideuteriomethyl)imidazo[1,5-a]pyrazin-1-yl]-3-methyl-phenyl]-2-(3-chlorophenyl)-2-hydroxy-acetamide], the IC50 in test [1] lay in the range of 1 to 25 nM; in test [2], 26 to 50 nM.

For the molecule `[2H]C([2H])([2H])c1nc(-c2ccc(NC(=O)C(O)c3cccc(Cl)c3)cc2C)c2c(N)nc(C)cn12` (stereo not drawn) [Example 35, N-[4-[8-amino-6-methyl-3-(trideuteriomethyl)imidazo[1,5-a]pyrazin-1-yl]-3-methyl-phenyl]-2-(3-chlorophenyl)-2-hydroxy-acetamide], the IC50 in test [1] was in the range of 101 to 250 nM; in test [2], 1000 to 2000 nM.

On to `[2H]C([2H])([2H])c1nc(-c2ccc(NC(=O)C(O)c3cccc(Cl)c3)cc2C)c2c(N)ncc(C)n12` (stereo not drawn) [Example 36, N-[4-[8-amino-5-methyl-3-(trideuteriomethyl)imidazo[1,5-a]pyrazin-1-yl]-3-methyl-phenyl]-2-(3-chlorophenyl)-2-hydroxy-acetamide], for which the IC50 in test [1] and in test [2] was 1 to 25 nM throughout.

Turning to `[2H]C([2H])([2H])c1nc(-c2ccc(NC(=O)C(O)c3cccc(Cl)c3)cc2C)c2c(N)ncc(C)n12` (stereo not drawn) [Example 37, N-[4-[8-amino-5-methyl-3-(trideuteriomethyl)imidazo[1,5-a]pyrazin-1-yl]-3-methyl-phenyl]-2-(3-chlorophenyl)-2-hydroxy-acetamide], the IC50 in test [1] lay in the range of 1 to 25 nM; in test [2] it was 51 to 100 nM.

Regarding `Cc1cc(NC(=O)C(O)c2cccc(Cl)c2)ccc1-c1nc(C)n2c(C)cnc(N)c12` (stereo not drawn) [Example 38, N-(4-(8-amino-3,5-dimethylimidazo [1,5-a]pyrazin-1-yl)-3-methyl-phenyl)-2-(3-chlorophenyl)-2-hydroxyacetamide], the IC50 in test [1] and in test [2] was 1 to 25 nM throughout.

As for `Cc1cc(NC(=O)C(O)c2cccc(Cl)c2)ccc1-c1nc(C)n2c(C)cnc(N)c12` (stereo not drawn) [Example 39, N-(4-(8-amino-3,5-dimethylimidazo [1,5-a]pyrazin-1-yl)-3-methyl-phenyl)-2-(3-chlorophenyl)-2-hydroxyacetamide], the results for the IC50 in test [1] and in test [2] were 1 to 25 nM and 101 to 250 nM, respectively.

Turning to `[2H]C([2H])([2H])c1nc(-c2ccc(NC(=O)C(O)c3cccc(Cl)c3)cc2C)c2c(N)ncc(Cl)n12` (stereo not drawn) [Example 42, N-[4-[8-amino-5-chloro-3-(trideuteriomethyl)imidazo[1,5-a]pyrazin-1-yl]-3-methyl-phenyl]-2-(3-chlorophenyl)-2-hydroxy-acetamide], the IC50 in test [1] and in test [2] was 1 to 25 nM each time.

For `[2H]C([2H])([2H])c1nc(-c2ccc(NC(=O)C(O)c3cccc(Cl)c3)cc2C)c2c(N)ncc(Cl)n12` (stereo not drawn) [Example 43, N-[4-[8-amino-5-chloro-3-(trideuteriomethyl)imidazo[1,5-a]pyrazin-1-yl]-3-methyl-phenyl]-2-(3-chlorophenyl)-2-hydroxy-acetamide], the IC50 in test [1] lay within 1 to 25 nM; in test [2] it was 26 to 50 nM.

Turning to `[2H]C([2H])([2H])c1nc(-c2ccc(NC(=O)C(O)c3cc(F)cc(F)c3)cc2C)c2c(N)nc(C)cn12` (stereo not drawn) [Example 44, N-[4-[8-amino-6-methyl-3-(trideuteriomethyl)imidazo[1,5-a]pyrazin-1-yl]-3-methyl-phenyl]-2-(3,5-difluoro-phenyl)-2-hydroxy-acetamide], the figures for the IC50 in test [1] and in test [2] were 1 to 25 nM and 101 to 250 nM, respectively.

Take `[2H]C([2H])([2H])c1nc(-c2ccc(NC(=O)C(O)c3cc(F)cc(F)c3)cc2C)c2c(N)nc(C)cn12` (stereo not drawn) [Example 45, N-[4-[8-amino-6-methyl-3-(trideuteriomethyl)imidazo[1,5-a]pyrazin-1-yl]-3-methyl-phenyl]-2-(3,5-difluoro-phenyl)-2-hydroxy-acetamide]: the results for the IC50 in test [1] and in test [2] were 51 to 100 nM and 1000 to 2000 nM, respectively.

On to `[2H]C([2H])([2H])c1nc(-c2ccc(NC(=O)C(O)c3cc(F)cc(F)c3)cc2C)c2c(N)ncc(C(F)(F)F)n12` (stereo not drawn) [Example 46, N-[4-[8-amino-3-(trideuteriomethyl)-5-(trifluoromethyl)imidazo[1,5-a]pyrazin-1-yl]-3-methyl-phenyl]-2-(3,5-difluoro-phenyl)-2-hydroxy-acetamide], for which the IC50 in test [1] was in the range of 1 to 25 nM; in test [2], 26 to 50 nM.

For `[2H]C([2H])([2H])c1nc(-c2ccc(NC(=O)C(O)c3cc(F)cc(F)c3)cc2C)c2c(N)ncc(C(F)(F)F)n12` (stereo not drawn) [Example 47, N-[4-[8-amino-3-(trideuteriomethyl)-5-(trifluoromethyl)imidazo[1,5-a]pyrazin-1-yl]-3-methyl-phenyl]-2-(3,5-difluoro-phenyl)-2-hydroxy-acetamide], the IC50 was in the range of 26 to 50 nM in test [1] and 101 to 250 nM in test [2].

Take `[2H]C([2H])([2H])c1nc(-c2ccc(NC(=O)C(O)c3cc(F)cc(F)c3)cc2C)c2c(N)ncc(Cl)n12` (stereo not drawn) [Example 48, N-[4-[8-amino-5-chloro-3-(trideuteriomethyl)imidazo[1,5-a]pyrazin-1-yl]-3-methyl-phenyl]-2-(3,5-difluoro-phenyl)-2-hydroxy-acetamide]: the IC50 in test [1] and in test [2] (2 h) was 1 to 25 nM each time.

With `[2H]C([2H])([2H])c1nc(-c2ccc(NC(=O)C(O)c3cc(F)cc(F)c3)cc2C)c2c(N)ncc(C)n12` (stereo not drawn) [Example 50, N-[4-[8-amino-5-methyl-3-(trideuteriomethyl)imidazo[1,5-a]pyrazin-1-yl]-3-methyl-phenyl]-2-(3,5-difluoro-phenyl)-2-hydroxy-acetamide], the IC50 in test [1] and in test [2] was 1 to 25 nM throughout.

In the case of `[2H]C([2H])([2H])c1nc(-c2ccc(NC(=O)C(O)c3cc(F)cc(F)c3)cc2C)c2c(N)ncc(C)n12` (stereo not drawn) [Example 51, N-[4-[8-amino-5-methyl-3-(trideuteriomethyl)imidazo[1,5-a]pyrazin-1-yl]-3-methyl-phenyl]-2-(3,5-difluoro-phenyl)-2-hydroxy-acetamide], the results for the concentration for half-maximal inhibition (IC50) in test [1] and in test [2] were 1 to 25 nM and 51 to 100 nM, respectively.

For the molecule `[2H]C([2H])([2H])c1nc(-c2ccc(NC(=O)C(O)c3cc(F)cc(C(F)(F)F)c3)cc2C)c2c(N)nc(C)cn12` (stereo not drawn) [Example 52, N-[4-[8-amino-6-methyl-3-(trideuteriomethyl)imidazo[1,5-a]pyrazin-1-yl]-3-methyl-phenyl]-2-[3-fluoro-5-(trifluoromethyl)phenyl]-2-hydroxy-acetamide], the 50% inhibitory concentration (IC50) in test [1] is 1 to 25 nM; in test [2], 26 to 50 nM.
